Measurements reported in patent publication US9938222B2 (BRISTOL-MYERS SQUIBB COMPANY, priority 2014, dated 2018).

molecular target: human GPR120 (Homo sapiens (Human), UniProt Q5NUL3); test: GPR120 pERK AlphaScreen SureFire Assay (human GPR120 pERK assay); format: cell-based; details: CHO cells stably transfected with short form of human GPR120
Outline: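 CHOA12 cells stably expressing short-form human GPR120, serum-starved 2 h, then stimulated 7 min at 37° C with compound (33.33 μM to 0.56 nM, 11-point). Phospho-ERK1/2 read by AlphaScreen SureFire in lysates. Activation scaled between DMSO and 50 μM linolenic acid; EC50 from a 4-parameter logistic fit.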

Sequence of human GPR120 (Q5NUL3 whole entry): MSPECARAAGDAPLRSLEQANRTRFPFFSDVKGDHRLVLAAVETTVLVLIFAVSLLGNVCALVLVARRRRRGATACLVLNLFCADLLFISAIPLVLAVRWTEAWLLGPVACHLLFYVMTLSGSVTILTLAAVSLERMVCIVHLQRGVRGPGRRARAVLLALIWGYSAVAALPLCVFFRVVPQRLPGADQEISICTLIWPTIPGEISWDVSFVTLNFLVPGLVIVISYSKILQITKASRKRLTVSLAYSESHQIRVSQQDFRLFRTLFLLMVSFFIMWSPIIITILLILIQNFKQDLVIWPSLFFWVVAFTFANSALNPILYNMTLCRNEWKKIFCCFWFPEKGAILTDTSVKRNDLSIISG

| SMILES | EC50 |
| --- | --- |
| CCOc1ccc(F)c(-c2ccc(OC[C@@H]3C[C@H]3C(=O)O)cc2)c1 (racemic) [Example 68, Trans-2-(((5′-ethoxy-2′-fluoro-[1,1′-biphenyl]-4-yl)oxy)methyl) cyclopropanecarboxylic acid] | 660 nM |
| O=C(O)[C@@H]1C[C@H]1COc1ccc(-c2cc(Cl)cc(OC(F)(F)F)c2)cc1 (racemic) [Example 48, Trans-2-(((3′-chloro-5′-(trifluoromethoxy)-[1,1′-biphenyl]-4-yl)oxy)methyl)cyclopropanecarboxylic acid] | 760 nM |
| CC(C)Oc1cc(-c2ccc(OC[C@@H]3C[C@H]3C(=O)O)cc2)c(F)cn1 (racemic) [Example 70, Trans-2-((4-(5-fluoro-2-isopropoxypyridin-4-yl)phenoxy)methyl)cyclopropanecarboxylic acid] | 2400 nM |
| CC(C)Oc1ccc(F)c(-c2ccc(CC[C@H]3C[C@]3(C)C(=O)O)cc2)c1 (racemic) [Example 41, Trans-2-(2-(2′-fluoro-5′-isopropoxy-[1,1′-biphenyl]-4-yl)ethyl)-1-methylcyclopropanecarboxylic acid] | 860 nM |
| Cc1nn(Cc2ccc(Cl)cc2)cc1-c1ccc(OC[C@@H]2C[C@H]2C(=O)O)cc1 (racemic) [Example 85, Trans-2-((4-(1-(4-chlorobenzyl)-3-methyl-1H-pyrazol-4-yl)phenoxy)methyl) cyclopropanecarboxylic acid] | 3810 nM |
| CC(C)Oc1cccc(-c2ccc(OC[C@@H]3C[C@H]3C(=O)O)cc2)c1 (racemic) [Example 73, Trans-2-(((3′-isopropoxy-[1,1′-biphenyl]-4-yl)oxy)methyl) cyclopropanecarboxylic acid] | 1380 nM |
| CC(C)Oc1ccc(Cl)c(-c2ccc(CC[C@@H]3C[C@H]3C(=O)O)cc2)c1 (relative stereo) [Example 133, Trans-2-(2-(2′-chloro-5′-isopropoxy-[1,1′-biphenyl]-4-yl)ethyl) cyclopropanecarboxylic acid] | 1860 nM |
| CC(C)Oc1ccc(F)c(-c2ccc(OC[C@H]3C[C@H]3C(=O)O)cc2)c1 (single isomer, unassigned) [Example 7] | 2810 nM |
| CC(C)Oc1cc(Cl)cc(-c2ccc(OC[C@H]3C[C@@H]3C(=O)O)c(F)c2)c1 (single isomer, unassigned) [Example 14] | 830 nM |
| COc1cc(-c2cc(Oc3cccc(F)c3)ccc2F)ccc1OC[C@@H]1C[C@H]1C(=O)O (relative stereo) [Example 99, Trans-2-(((2′-fluoro-5′-(3-fluorophenoxy)-3-methoxy-[1,1′-biphenyl]-4-yl)oxy)methyl) cyclopropanecarboxylic acid] | 1140 nM |

Compounds with a lower EC50, results first:

| EC50 | SMILES |
| --- | --- |
| 140 nM | O=C(O)[C@H]1C[C@@H]1COc1ccc(-c2cc(Oc3cccc(F)c3)cc(F)c2F)cc1F (single isomer, unassigned) [Example 105] |
| 370 nM | O=C(O)[C@@H]1C[C@H]1COc1ccc(-c2cc(OCC3CC3)ccc2F)cc1 (racemic) [Example 95, Trans-2-(((5′-(cyclopropylmethoxy)-2′-fluoro-[1,1′-biphenyl]-4-yl)oxy)methyl)cyclopropanecarboxylic acid] |
| 210 nM | O=C(O)[C@@H]1CC1COc1ccc(-c2cc(Oc3cccc(F)c3)cnc2Cl)cc1 (some centres unmarked) [Example 112] |
| 470 nM | O=C(O)[C@@H]1C[C@@H]1COc1ccc(-c2cc(Oc3ccccc3)ccc2F)cc1 (racemic) [Example 4, Cis-2-(((2′-fluoro-5′-phenoxy-[1,1′-biphenyl]-4-yl)oxy)methyl)cyclopropanecarboxylic acid] |
| 440 nM | CC(C)Oc1ccc(F)c(-c2ccc(COC[C@@H]3C[C@H]3C(=O)O)cc2)c1 (racemic) [Example 24, Trans-2-(((2′-fluoro-5′-isopropoxy-[1,1′-biphenyl]-4-yl)methoxy)methyl) cyclopropanecarboxylic acid] |
| 130 nM | Cc1ccc(Oc2ccc(F)c(-c3ccc(OCC4CC4C(=O)O)c(F)c3)c2)cc1F (single isomer, unassigned) [Example 101, Trans-2-(((2′,3-difluoro-5′-(3-fluoro-4-methylphenoxy)-[1,1′-biphenyl]-4-yl)oxy)methyl)cyclopropanecarboxylic acid] |
| 250 nM | CC(C)Oc1ccc(F)c(-c2ccc(OC[C@H]3C[C@@H]3C(=O)O)cc2)c1 (single isomer, unassigned) [Example 2] |
| 460 nM | O=C(c1ccccc1)c1cccc(-c2ccc(OC[C@@H]3C[C@H]3C(=O)O)cc2)c1 (racemic) [Example 118, Trans-2-(((3′-benzoyl-[1,1′-biphenyl]-4-yl)oxy)methyl) cyclopropanecarboxylic acid] |
| 310 nM | Cc1ccc(Oc2cc(F)c(F)c(-c3ccc(OCC4CC4C(=O)O)c(F)c3)c2)cc1F (racemic) [Example 107] |
| 260 nM | Cc1ccc(Oc2cc(F)c(F)c(-c3ccc(OCC4CC4C(=O)O)c(F)c3)c2)cc1F (single isomer, unassigned) [Example 109] |
| 90 nM | Cc1ccc(Oc2ccc(F)c(-c3ccc(OCC4C[C@@H]4C(=O)O)cc3)c2)cn1 (some centres unmarked) [Example 116] |
| 180 nM | O=C(O)[C@@H]1C[C@H]1CCc1ccc(-c2cccc(Oc3ccccc3)c2)cc1 (racemic) [Example 75, Trans-2-(2-(3′-phenoxy-[1,1′-biphenyl]-4-yl)ethyl) cyclopropanecarboxylic acid] |
| 640 nM | CC(C)Oc1ccc(F)c(-c2ccc(CC[C@@H]3C[C@H]3C(=O)O)cc2)c1 (single isomer, unassigned) [Example 31] |
| 290 nM | CC(C)Oc1ccc(F)c(-c2ccc(OC[C@H]3C[C@@H]3C(=O)O)c(F)c2)c1 (single isomer, unassigned) [Example 64] |
| 310 nM | O=C(O)[C@@H]1C[C@H]1COc1ccc(-c2cc(Oc3ccc(F)c(F)c3)ccc2F)cc1 (racemic) [Example 91, Trans-2-(((5′-(3,4-difluorophenoxy)-2′-fluoro-[1,1′-biphenyl]-4-yl)oxy)methyl) cyclopropanecarboxylic acid] |

test system: C57BL/6 mice; test: Acute Oral Glucose Tolerance Test; format: in vivo; details: dosed at 30 mg/kg orally 60 min before glucose challenge (2 g/kg), AUC t=0-120 min compared to vehicle
Experimental: In Vivo GPR120 Assays 1) Acute Oral Glucose Tolerance Test
C57BL/6 mice were housed individually and fed a standard rodent chow diet. At approximately 11 weeks age, after a 5 h fast, these mice were orally treated with vehicle or test compounds 60 min before a glucose challenge (2 g/kg). Blood glucose levels were determined from tail bleeds taken at −60, 0, 15, 30, 60 and 120 min after the glucose challenge. […] This AUC for compound treatment is compared to vehicle treatment.

| SMILES | reduced glucose AUC |
| --- | --- |
| O=C(O)[C@H]1C[C@@H]1COc1ccc(-c2cc(Oc3cccc(F)c3)cc(F)c2F)cc1F (single isomer, unassigned) [Example 105] | 55% |
